Drawing on ChEMBL document CHEMBL1201862, “PubChem BioAssay data set” (2004), this text covers EC50, IC50 and AC50 for 8 molecules.

The target in data set [1] is Beta-2 adrenergic receptor (Homo sapiens, UniProt P07550). Put plainly: beta2AR agonists driving receptor internalization, dose response, cell-based, FAP fluorogen, flow cytometry, cherry pick 1 (AID 588763). The class given is functional. On the technique in general: A flow cytometer gives signals particle by particle.
The next data set concerns the target Beta-galactosidase (Escherichia coli, UniProt Q8VNN2). Put plainly: PubChem AID 485352. The class given is functional.
Data set [2] addresses T1, Type-1 angiotensin II receptor (Homo sapiens, UniProt P30556).
T1 sequence (P30556 whole entry): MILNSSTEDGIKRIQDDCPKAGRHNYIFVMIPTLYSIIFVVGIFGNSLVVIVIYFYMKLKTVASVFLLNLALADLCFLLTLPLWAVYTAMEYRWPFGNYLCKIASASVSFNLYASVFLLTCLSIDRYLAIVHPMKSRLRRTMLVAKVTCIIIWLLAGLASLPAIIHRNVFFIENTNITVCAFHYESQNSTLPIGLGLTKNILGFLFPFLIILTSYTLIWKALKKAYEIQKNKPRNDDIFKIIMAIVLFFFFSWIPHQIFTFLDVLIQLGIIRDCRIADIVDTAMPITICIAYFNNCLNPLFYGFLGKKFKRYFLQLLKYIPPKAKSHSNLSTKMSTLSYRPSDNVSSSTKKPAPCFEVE
Put plainly: AT1 receptor antagonists, dose response, selectivity assay for APJ receptor antagonist project, cell-based, uHTS hits (AID 463214).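 Also: antagonist potency against angiotensin II stimulated AT1 response.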 In kind it is functional.

Another data set deals with T2, Caspase-3 (Homo sapiens, UniProt P42574).
T2 sequence (P42574 whole entry): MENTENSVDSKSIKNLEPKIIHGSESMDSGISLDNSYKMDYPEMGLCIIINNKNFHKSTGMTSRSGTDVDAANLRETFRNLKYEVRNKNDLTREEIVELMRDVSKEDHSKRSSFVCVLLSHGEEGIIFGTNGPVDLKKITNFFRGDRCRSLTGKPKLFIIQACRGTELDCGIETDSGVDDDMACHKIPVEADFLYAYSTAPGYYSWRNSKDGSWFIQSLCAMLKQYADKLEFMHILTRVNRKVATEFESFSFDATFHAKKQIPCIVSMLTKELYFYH
The class given is functional.

Data set [3] has as its target T3, Sentrin-specific protease 7 (Homo sapiens, UniProt Q9BQF6).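 Also: Luminescence-based dose-response confirmation of ultra-high-throughput screening hits, measuring inhibition of SENP7.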
T3 sequence (Q9BQF6 whole entry): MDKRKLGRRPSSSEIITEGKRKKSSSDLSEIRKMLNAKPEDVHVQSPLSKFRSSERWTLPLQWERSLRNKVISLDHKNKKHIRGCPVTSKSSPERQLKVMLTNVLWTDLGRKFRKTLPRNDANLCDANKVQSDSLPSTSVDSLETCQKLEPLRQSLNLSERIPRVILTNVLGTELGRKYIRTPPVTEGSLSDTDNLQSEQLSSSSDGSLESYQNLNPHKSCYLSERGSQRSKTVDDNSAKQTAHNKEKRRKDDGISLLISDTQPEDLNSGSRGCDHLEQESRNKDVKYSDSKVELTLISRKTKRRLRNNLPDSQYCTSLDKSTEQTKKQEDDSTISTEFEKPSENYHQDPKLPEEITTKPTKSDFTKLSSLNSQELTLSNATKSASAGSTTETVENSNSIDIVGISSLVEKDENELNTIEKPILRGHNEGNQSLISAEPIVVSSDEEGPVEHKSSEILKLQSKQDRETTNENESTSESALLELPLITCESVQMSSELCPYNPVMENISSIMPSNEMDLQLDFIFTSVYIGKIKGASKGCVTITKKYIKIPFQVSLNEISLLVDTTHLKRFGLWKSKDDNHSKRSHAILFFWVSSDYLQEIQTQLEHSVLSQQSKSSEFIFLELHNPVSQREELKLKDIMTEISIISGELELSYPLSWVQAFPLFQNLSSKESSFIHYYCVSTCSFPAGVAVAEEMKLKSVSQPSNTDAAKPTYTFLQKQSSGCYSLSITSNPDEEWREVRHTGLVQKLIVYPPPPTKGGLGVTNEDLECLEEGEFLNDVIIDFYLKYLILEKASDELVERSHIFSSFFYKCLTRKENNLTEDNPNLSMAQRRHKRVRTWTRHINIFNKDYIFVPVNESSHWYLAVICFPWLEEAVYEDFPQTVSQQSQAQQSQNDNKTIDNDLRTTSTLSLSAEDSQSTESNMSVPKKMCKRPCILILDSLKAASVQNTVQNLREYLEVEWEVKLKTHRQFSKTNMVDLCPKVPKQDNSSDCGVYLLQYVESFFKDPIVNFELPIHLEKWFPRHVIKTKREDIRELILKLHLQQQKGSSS
The class given is functional.

Data set [4] concerns the target T4, Sentrin-specific protease 6 (Homo sapiens, UniProt Q9GZR1).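 Also: Luminescence-based dose-response confirmatory assay of SENP6 inhibition, following up an ultra-high-throughput screen.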
T4 sequence (Q9GZR1 whole entry): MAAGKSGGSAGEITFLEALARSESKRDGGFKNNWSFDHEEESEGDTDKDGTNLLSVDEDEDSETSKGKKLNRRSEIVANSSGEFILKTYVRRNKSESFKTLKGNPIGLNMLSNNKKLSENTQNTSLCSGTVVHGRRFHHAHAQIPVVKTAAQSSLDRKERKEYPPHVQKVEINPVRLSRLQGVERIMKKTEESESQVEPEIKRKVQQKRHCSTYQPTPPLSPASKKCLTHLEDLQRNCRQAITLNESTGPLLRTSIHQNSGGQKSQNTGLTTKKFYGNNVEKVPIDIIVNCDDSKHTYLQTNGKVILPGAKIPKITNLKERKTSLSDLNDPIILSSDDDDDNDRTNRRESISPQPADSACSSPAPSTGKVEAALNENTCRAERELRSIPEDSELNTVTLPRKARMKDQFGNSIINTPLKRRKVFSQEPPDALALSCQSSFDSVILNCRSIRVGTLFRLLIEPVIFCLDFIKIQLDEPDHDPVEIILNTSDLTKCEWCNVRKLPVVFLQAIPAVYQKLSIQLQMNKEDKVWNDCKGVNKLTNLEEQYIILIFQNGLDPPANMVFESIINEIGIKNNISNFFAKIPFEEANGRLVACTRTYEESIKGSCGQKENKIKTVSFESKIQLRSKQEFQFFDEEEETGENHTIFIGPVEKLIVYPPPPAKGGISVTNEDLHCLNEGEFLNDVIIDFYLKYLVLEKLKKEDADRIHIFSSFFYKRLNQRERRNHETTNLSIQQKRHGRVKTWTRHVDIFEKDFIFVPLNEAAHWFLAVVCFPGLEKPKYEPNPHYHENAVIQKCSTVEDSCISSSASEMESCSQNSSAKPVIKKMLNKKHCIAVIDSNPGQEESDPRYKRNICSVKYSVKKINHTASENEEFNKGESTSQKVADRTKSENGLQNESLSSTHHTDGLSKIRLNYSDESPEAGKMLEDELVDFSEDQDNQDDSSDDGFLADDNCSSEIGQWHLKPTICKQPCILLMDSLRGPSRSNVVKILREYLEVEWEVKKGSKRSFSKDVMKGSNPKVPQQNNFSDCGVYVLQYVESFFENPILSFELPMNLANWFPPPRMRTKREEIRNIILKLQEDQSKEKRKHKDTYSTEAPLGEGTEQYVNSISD
The class given is functional.

The target of data set [5] is T5, Sentrin-specific protease 8 (Homo sapiens, UniProt Q96LD8).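 Also: luminescence read-out of SENP8 inhibition, dose-response confirmation following an ultra-high-throughput screen.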
T5 sequence (Q96LD8 whole entry): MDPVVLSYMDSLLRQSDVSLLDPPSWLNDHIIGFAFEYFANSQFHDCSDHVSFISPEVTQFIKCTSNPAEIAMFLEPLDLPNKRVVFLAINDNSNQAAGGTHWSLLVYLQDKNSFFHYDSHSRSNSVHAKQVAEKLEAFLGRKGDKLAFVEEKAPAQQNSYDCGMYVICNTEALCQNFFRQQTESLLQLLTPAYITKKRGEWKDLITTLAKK
In kind it is functional.

Another data set relates to HeLa. Kind of data set: HeLa cell cytotoxicity, dose response, cytotoxicity control for MITF activator project, CellTiter-Glo luminescence, cherry-pick samples (AID 540259). As to conditions: Homo sapiens. In kind it is functional, cell-based. On the technique in general: In ATP-based viability assays light output follows the ATP content of the culture.
Data set [6] has as its target T6, Apoptotic protease-activating factor 1 (Homo sapiens, UniProt O14727).
T6 sequence (O14727 whole entry): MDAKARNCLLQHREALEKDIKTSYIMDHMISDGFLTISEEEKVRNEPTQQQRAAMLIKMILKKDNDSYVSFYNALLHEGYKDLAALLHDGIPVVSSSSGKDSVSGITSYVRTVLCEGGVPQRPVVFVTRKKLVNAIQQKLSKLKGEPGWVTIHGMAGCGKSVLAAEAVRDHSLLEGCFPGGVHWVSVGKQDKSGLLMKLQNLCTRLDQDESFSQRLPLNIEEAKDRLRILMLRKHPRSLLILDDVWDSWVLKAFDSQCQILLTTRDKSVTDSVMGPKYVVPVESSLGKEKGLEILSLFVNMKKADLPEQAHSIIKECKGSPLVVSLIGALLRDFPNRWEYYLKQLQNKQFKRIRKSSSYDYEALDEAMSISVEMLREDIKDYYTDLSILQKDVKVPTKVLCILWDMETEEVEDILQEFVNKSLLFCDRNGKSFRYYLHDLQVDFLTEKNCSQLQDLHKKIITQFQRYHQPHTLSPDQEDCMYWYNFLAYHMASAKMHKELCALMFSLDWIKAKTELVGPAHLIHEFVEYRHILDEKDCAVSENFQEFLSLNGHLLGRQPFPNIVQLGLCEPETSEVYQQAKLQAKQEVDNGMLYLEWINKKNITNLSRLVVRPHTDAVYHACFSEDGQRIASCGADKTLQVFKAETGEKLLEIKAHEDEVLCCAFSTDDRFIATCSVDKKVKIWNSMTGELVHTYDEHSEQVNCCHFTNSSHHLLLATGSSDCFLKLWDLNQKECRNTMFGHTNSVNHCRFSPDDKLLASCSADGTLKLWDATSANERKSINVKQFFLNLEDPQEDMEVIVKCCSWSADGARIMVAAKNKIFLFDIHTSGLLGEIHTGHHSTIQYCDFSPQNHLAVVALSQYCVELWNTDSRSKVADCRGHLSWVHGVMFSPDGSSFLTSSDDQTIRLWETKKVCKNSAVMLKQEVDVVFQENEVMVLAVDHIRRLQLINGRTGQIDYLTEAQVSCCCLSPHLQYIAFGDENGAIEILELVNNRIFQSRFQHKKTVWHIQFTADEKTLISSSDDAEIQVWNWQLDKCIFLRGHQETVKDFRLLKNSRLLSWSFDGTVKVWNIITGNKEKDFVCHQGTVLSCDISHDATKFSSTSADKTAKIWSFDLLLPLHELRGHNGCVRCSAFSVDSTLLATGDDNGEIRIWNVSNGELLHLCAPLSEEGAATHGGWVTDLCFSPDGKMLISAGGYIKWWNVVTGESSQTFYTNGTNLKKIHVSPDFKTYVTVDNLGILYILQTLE
The class given is functional.

The target in data set [7] is Delta-type opioid receptor (Homo sapiens, UniProt P41143). Kind of data set: Counterscreen for agonists of heterodimerization of the mu 1 (OPRM1) and delta 1 (OPRD1) opioid receptors: Luminescence-based cell-based high throughput dose response assay to identify agonists of OPRD1 homodimerization. [Related pubchem assays (depositor defined):AID504326, AID504355, AID504692, AID504904, AID504905]. In kind it is functional. (In general: A counterscreen serves to expose hits that act by an unwanted route or on another target.)
Sequence of Delta-type opioid receptor (P41143 whole entry): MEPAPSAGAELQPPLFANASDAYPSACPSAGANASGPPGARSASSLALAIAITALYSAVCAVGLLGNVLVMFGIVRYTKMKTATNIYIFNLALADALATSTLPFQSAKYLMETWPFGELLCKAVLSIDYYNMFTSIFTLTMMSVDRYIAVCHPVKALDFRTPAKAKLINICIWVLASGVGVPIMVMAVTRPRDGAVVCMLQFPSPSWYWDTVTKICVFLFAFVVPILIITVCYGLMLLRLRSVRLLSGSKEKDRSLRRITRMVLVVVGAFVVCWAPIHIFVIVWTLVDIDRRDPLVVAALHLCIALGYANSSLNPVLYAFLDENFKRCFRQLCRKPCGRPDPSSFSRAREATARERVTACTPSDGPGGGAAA

The next data set addresses Mu-type opioid receptor (Homo sapiens, UniProt P35372). Kind of data set: Counterscreen for agonists of heterodimerization of the mu 1 (OPRM1) and delta 1 (OPRD1) opioid receptors: Luminescence-based cell-based high throughput dose response assay to identify agonists of OPRM1 homodimerization. In kind it is functional.
In data set [8] the target is 5-hydroxytryptamine receptor 5A (Homo sapiens, UniProt P47898). Put plainly: Counterscreen for agonists of OPRM1-OPRD1 heterodimerization: luminescence-based cell-based high throughput dose response assay to identify agonists of 5-hydroxytryptamine (serotonin) 5A receptor (HTR5A). [Related pubchem assays (depositor defined):AID504326, AID504355, AID504692, AID504904, AID504905]. In kind it is functional.
Sequence of 5-hydroxytryptamine receptor 5A (P47898 whole entry): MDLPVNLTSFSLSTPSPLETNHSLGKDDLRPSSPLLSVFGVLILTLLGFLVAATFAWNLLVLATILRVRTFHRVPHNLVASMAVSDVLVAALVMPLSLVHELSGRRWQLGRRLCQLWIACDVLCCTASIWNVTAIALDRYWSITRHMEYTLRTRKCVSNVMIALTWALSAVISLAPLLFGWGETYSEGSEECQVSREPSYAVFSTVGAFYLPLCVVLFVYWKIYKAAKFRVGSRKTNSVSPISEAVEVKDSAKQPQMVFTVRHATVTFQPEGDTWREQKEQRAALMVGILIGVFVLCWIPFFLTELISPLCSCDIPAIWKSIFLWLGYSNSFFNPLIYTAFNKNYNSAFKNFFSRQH

Data set [9] concerns the target 26S proteasome non-ATPase regulatory subunit 14 (Homo sapiens, UniProt O00487). Kind of data set: inhibition of proteasome subunit RPN11 – biochemical, fluorescence polarization, uHTS hits, confirmation (AID 602368). In kind it is functional.
The target of data set [10] is 72 kDa type IV collagenase (Homo sapiens, UniProt P08253). Kind of data set: Dose Response validation of uHTS RPN11 inhibitor hits using a MMP-2 Fluorescence assay. In kind it is functional.
Sequence of 72 kDa type IV collagenase (P08253 whole entry): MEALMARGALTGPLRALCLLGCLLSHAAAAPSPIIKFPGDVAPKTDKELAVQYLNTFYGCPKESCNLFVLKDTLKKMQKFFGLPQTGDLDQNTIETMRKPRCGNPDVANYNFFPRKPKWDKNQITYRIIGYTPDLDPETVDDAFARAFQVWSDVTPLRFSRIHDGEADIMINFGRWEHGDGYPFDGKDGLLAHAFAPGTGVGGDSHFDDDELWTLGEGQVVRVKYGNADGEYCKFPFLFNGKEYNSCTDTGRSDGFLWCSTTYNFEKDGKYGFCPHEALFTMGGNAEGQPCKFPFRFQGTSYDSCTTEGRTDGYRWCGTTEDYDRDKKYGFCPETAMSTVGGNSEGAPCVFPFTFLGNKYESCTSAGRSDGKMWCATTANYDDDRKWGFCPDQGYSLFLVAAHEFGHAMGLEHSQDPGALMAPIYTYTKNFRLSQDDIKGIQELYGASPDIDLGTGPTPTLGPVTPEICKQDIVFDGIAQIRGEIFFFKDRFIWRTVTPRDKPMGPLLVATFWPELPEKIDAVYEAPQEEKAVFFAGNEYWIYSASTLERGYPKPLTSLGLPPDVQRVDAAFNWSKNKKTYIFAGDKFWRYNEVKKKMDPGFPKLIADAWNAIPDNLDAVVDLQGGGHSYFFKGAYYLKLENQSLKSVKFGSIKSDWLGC
Another data set concerns the target Prothrombin (Bos taurus, UniProt P00735). Kind of data set: thrombin inhibition, dose response, biochemical, fluorescence polarization, uHTS hits (AID 602369). In kind it is functional.
The target of another data set is Cytochrome P450 3A4 (Homo sapiens, UniProt P08684).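 Also: CYP3A4 tested as one member of a cytochrome P450 panel screen.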
Sequence of Cytochrome P450 3A4 (P08684 whole entry): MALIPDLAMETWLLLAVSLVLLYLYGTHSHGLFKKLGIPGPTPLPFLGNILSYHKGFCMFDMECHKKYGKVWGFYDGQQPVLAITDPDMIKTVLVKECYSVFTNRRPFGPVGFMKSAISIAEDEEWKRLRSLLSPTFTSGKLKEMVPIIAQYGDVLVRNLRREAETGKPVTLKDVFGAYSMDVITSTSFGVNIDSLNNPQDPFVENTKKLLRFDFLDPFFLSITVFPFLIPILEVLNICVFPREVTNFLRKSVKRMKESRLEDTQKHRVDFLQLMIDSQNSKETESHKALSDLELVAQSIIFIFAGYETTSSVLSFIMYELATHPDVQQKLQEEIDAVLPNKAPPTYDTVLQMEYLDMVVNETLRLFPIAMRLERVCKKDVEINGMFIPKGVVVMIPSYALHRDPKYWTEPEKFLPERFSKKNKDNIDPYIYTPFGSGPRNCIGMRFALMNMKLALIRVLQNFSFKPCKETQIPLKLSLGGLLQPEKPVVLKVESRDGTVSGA

Active and inactive are the calls of the source. Bounds are passed on as bounds.

Sequence of Beta-2 adrenergic receptor (P07550 whole entry): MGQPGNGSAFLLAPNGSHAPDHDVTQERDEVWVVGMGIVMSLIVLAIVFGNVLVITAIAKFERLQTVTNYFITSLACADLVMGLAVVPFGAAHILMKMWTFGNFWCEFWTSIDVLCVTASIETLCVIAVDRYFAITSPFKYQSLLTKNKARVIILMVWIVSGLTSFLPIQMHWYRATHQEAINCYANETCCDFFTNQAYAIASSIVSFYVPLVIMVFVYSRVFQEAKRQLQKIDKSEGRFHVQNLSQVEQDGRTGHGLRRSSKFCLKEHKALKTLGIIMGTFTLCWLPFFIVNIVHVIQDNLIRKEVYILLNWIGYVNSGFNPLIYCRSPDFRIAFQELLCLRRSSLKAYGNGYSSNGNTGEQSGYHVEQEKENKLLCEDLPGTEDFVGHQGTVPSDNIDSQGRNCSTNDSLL
Sequence of Beta-galactosidase (Q8VNN2 whole entry): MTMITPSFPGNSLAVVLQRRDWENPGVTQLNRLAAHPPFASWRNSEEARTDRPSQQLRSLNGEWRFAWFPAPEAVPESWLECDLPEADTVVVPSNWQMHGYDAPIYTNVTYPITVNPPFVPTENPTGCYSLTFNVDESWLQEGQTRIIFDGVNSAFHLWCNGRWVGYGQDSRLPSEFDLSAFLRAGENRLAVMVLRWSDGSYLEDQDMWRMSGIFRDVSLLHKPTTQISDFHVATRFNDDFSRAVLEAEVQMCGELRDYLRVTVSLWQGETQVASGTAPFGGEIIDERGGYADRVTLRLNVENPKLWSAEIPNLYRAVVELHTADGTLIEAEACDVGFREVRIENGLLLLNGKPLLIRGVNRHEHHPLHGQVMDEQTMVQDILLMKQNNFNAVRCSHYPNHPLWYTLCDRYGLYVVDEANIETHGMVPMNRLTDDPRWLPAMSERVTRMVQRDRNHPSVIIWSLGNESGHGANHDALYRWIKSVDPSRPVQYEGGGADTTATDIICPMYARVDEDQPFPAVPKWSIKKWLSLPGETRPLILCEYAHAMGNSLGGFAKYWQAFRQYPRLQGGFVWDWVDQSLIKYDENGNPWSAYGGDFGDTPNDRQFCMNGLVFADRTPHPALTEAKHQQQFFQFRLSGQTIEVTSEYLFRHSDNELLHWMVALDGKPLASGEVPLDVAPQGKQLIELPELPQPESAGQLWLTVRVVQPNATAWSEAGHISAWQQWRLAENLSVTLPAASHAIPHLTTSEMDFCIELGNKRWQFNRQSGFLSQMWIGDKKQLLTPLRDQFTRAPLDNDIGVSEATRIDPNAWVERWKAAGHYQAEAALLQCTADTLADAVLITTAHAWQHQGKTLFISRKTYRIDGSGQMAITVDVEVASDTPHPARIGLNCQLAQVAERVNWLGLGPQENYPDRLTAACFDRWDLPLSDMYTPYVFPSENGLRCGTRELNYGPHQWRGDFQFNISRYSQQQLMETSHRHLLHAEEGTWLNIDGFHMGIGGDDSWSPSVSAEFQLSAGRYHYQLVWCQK
Sequence of 26S proteasome non-ATPase regulatory subunit 14 (O00487 whole entry): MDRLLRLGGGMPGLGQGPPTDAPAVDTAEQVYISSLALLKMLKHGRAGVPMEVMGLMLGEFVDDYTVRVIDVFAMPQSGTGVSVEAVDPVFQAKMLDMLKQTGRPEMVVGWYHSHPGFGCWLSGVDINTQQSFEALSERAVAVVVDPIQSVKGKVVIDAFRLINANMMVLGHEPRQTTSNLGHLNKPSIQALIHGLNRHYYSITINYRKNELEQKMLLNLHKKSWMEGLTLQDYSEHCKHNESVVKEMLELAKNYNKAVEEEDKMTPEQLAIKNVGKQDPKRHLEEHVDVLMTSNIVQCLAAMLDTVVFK
Sequence of Mu-type opioid receptor (P35372 whole entry): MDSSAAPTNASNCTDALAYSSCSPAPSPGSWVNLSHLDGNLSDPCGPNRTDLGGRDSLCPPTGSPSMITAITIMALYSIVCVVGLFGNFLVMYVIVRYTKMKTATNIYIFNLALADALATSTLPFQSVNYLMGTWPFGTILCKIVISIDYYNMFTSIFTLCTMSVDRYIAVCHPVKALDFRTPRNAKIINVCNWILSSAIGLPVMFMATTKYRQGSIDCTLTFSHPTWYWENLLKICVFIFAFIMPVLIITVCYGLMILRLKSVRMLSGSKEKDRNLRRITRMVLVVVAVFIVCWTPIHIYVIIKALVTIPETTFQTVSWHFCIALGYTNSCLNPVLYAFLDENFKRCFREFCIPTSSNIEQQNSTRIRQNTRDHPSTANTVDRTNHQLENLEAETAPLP

As usually defined, the EC50 is the concentration at which the effect is half-maximal. Regarding `COc1ccc([C@H](C)NC[C@H](O)c2ccc(O)c(NC=O)c2)cc1`, the concentration for a half-maximal effect (EC50) in [1] was 0.0108 µM (active).
As a reminder, the IC50 is the concentration needed to halve the response being measured. Regarding `Cc1ccc(N=C2C(=O)Nc3ccc(Br)cc32)cc1`, the EC50 on Beta-galactosidase was > 40 µM (inactive). In [2], the half-inhibitory concentration (IC50) was 7.76 µM (active).
Consider `c1ccc(CSc2nnnn2-c2cccc3ccccc23)nc1`, for which, in data set [1], the EC50 was 1.22 µM (active).
For the molecule `N#Cc1ccccc1COC(=O)c1ccc2c(c1)OCCO2`, the concentration for half-maximal inhibition (IC50) on Caspase-3 is 19.9 µM (active); in [3], 8.48 µM (active); in [4], 22.5 µM (active); in data set [5], 27.5 µM (active).
Take `O=C1N=c2ccc(Br)cc2=C1Nc1ccc(-c2nnc3n2CCCCC3)cc1`: the EC50 on Beta-galactosidase is > 40 µM (inactive). For the same molecule, the IC50 in data set [2] is reported as 29.4 µM (not active).
What is called AC50 is the concentration giving half of the maximal activity seen. Regarding `Cc1nn2cc(-c3ccc(Cl)cc3)cnc2c1Cl`, in the data set on HeLa, the AC50 was 108 µM (active).
In the case of `Cc1cc(N2CCN(c3ccc([N+](=O)[O-])c4cccnc34)CC2)c2ccccc2n1`, the IC50 was 34 µM (active) in data set [6], 27.7 µM (active) in data set [9], > 100 µM (inactive) in data set [10] and 27.7 µM (active) on Prothrombin. Also, the EC50 (in [7]; at Mu-type opioid receptor; in data set [8]) was > 92.5 µM (inactive) throughout.
For `CSc1ccc(CNc2ccc(Cl)cc2)cc1`, the values for the AC50 in the data set on HeLa and on Cytochrome P450 3A4 were 56.4 µM (active) and “inconclusive”, respectively.
